Here are results for 15 molecules from PubChem BioAssay (NCI).

The structures appear in SMILES notation.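 Protocol summary: plate cells (96-well), add compound at 5 concentrations, incubate 48 h, interpolate endpoints linearly. GI50 is the concentration that inhibits growth by half. TGI: total growth inhibition.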 A value given as a limit tells only on which side of the number the result lay.

Test systems include COLO 205 colon; HL-60(TB) leukemia; LOX IMVI melanoma; NCI-H226 lung; OVCAR-8 ovarian; SF-539 CNS; SK-MEL-5 melanoma; SK-OV-3 ovarian; SNB-75 CNS.
Experiment in all cases: growth of human tumour cells (NCI), 48 h

Take `COc1ccc(CCc2cc(OC)cc(OC)c2)cc1`: the TGI in the assay on COLO 205 colon is above 60.5 µM; in the assay on HL-60(TB) leukemia, above 84.5 µM; with LOX IMVI melanoma it was above 100 µM; in the assay on NCI-H226 lung, above 100 µM; with OVCAR-8 ovarian it was above 100 µM; in the assay on SF-539 CNS, above 100 µM. Besides, the TGI in the assay with SK-MEL-5 melanoma is above 87 µM; in the assay with SK-OV-3 ovarian, above 100 µM; in the assay with SNB-75 CNS, above 81.3 µM.
With `COc1ccc(C(=O)C(CC2C(=O)NC(=O)NC2=O)c2ccc(OC)cc2)cc1` (configuration not stated), the TGI in the assay on COLO 205 colon, with HL-60(TB) leukemia, in the assay with LOX IMVI melanoma, in the assay with NCI-H226 lung, in the assay on OVCAR-8 ovarian and in the assay with SF-539 CNS was above 100 µM throughout. Moreover, the TGI with SK-MEL-5 melanoma, with SK-OV-3 ovarian and in the assay on SNB-75 CNS was above 100 µM each time.
For the molecule `Cc1cc(N=C2C=C(Br)C(=O)C(Br)=C2)cc(CN(CC(=O)O)CC(=O)O)c1O`, the TGI with COLO 205 colon, in the assay on HL-60(TB) leukemia, with NCI-H226 lung, in the assay on OVCAR-8 ovarian, with SF-539 CNS and in the assay on SK-MEL-5 melanoma was above 100 µM in each case. In addition, the TGI with SK-OV-3 ovarian and in the assay on SNB-75 CNS was above 100 µM each time.
On to `N.N.N.N.N.O=[N+]([O-])[O-].[Co+3].[O-][Cl+3]([O-])([O-])[O-]`, for which the GI50 with COLO 205 colon, in the assay on HL-60(TB) leukemia, in the assay with LOX IMVI melanoma, with OVCAR-8 ovarian, in the assay with SF-539 CNS and in the assay with SK-MEL-5 melanoma was above 100 µM in each case. Further, the GI50 in the assay on SK-OV-3 ovarian was above 100 µM; with SNB-75 CNS, 29.6 µM. The TGI in the assay with COLO 205 colon, with HL-60(TB) leukemia, in the assay with LOX IMVI melanoma, with OVCAR-8 ovarian, in the assay with SF-539 CNS and in the assay on SK-MEL-5 melanoma was above 100 µM each time. In addition, the TGI in the assay on SK-OV-3 ovarian and with SNB-75 CNS was above 100 µM in each case.
As for `C[C@]12CC[C@H](O)CC1=CC[C@@H]1C2CC[C@]2(C)Nc3c(cnn3-c3ccccc3)CC12` (some centres not stated), the TGI in the assay with HL-60(TB) leukemia is 7 µM; in the assay with NCI-H226 lung, 56.1 µM; in the assay with OVCAR-8 ovarian it was above 100 µM; in the assay with SF-539 CNS it was 2.99 µM; in the assay with SK-MEL-5 melanoma, 12.4 µM; in the assay on SK-OV-3 ovarian it was 20.7 µM. In the assay on SNB-75 CNS, this molecule registered a TGI of 9.12 µM.
Turning to `CCOC(=O)N1CCc2cc(OC)c(OC)cc2/C1=C\c1ccc(OC)c(OC)c1`, the TGI is 59.9 µM in the assay on COLO 205 colon; 53.1 µM with HL-60(TB) leukemia; 40.3 µM in the assay with LOX IMVI melanoma; 61.2 µM in the assay with NCI-H226 lung; 92.7 µM with OVCAR-8 ovarian; 59.2 µM in the assay on SF-539 CNS. The TGI with SK-OV-3 ovarian is above 100 µM; with SNB-75 CNS, 79.3 µM.
With `CCCC(=O)N[C@H]1C2C3CC4C5CC(C42)C1(C)C53` (some centres not stated), the TGI in the assay with COLO 205 colon, in the assay with HL-60(TB) leukemia, with LOX IMVI melanoma, in the assay with NCI-H226 lung, in the assay with SF-539 CNS and in the assay with SK-MEL-5 melanoma was above 100 µM in each case. Moreover, the TGI in the assay with SK-OV-3 ovarian and with SNB-75 CNS was above 100 µM throughout.
`Cc1cccc(C)c1NC(=O)CCc1nc(=S)[nH][nH]1`: the TGI in the assay with COLO 205 colon, with HL-60(TB) leukemia, in the assay with LOX IMVI melanoma, in the assay on NCI-H226 lung, with OVCAR-8 ovarian and with SF-539 CNS was above 100 µM each time. Moreover, the TGI in the assay with SK-OV-3 ovarian and in the assay with SNB-75 CNS was above 100 µM each time.
For the molecule `CC(=O)O[C@]1(C)OC(=O)[C@@H](CC(C)C)N1[N+](=O)[O-]`, the TGI in the assay on COLO 205 colon, with HL-60(TB) leukemia, with LOX IMVI melanoma, with NCI-H226 lung, in the assay on OVCAR-8 ovarian and in the assay on SF-539 CNS was above 100 µM throughout. Moreover, the TGI with SK-MEL-5 melanoma, with SK-OV-3 ovarian and in the assay on SNB-75 CNS was above 100 µM each time.
For the molecule `CC1CCSC(N(C(=O)N(C)c2ccccc2)c2ccccc2)=N1` (configuration not stated), the TGI in the assay on COLO 205 colon, in the assay on HL-60(TB) leukemia, in the assay on LOX IMVI melanoma, in the assay on NCI-H226 lung, in the assay with OVCAR-8 ovarian and in the assay with SF-539 CNS was above 100 µM throughout. Moreover, the TGI with SK-MEL-5 melanoma, in the assay with SK-OV-3 ovarian and in the assay on SNB-75 CNS was above 100 µM in each case.
Regarding `Cc1c(NC(=S)NC(=O)c2ccc([N+](=O)[O-])cc2)c(=O)n(-c2ccccc2)n1C`, the TGI in the assay with COLO 205 colon, with HL-60(TB) leukemia, in the assay with LOX IMVI melanoma, with NCI-H226 lung, in the assay with OVCAR-8 ovarian and in the assay with SF-539 CNS was above 100 µM each time. For the same molecule, the TGI in the assay on SK-MEL-5 melanoma, in the assay on SK-OV-3 ovarian and with SNB-75 CNS was above 100 µM in each case.
Turning to `CC(C)OP(=O)(OC(C)C)/C(N)=N/Nc1ccc([N+](=O)[O-])cc1`, the TGI with COLO 205 colon, in the assay with HL-60(TB) leukemia, in the assay with LOX IMVI melanoma, in the assay with NCI-H226 lung, in the assay on OVCAR-8 ovarian and in the assay on SF-539 CNS was above 100 µM each time. For the same molecule, the TGI with SK-MEL-5 melanoma and with SNB-75 CNS was above 100 µM each time.
On to `CCOC(=O)CCn1ncc(Cl)c(Cl)c1=O`, for which the TGI with COLO 205 colon came out at 25.6 µM; in the assay with HL-60(TB) leukemia, 6.49 µM; in the assay with LOX IMVI melanoma, 25.7 µM; in the assay on NCI-H226 lung it was 25.3 µM; in the assay on OVCAR-8 ovarian, 11.9 µM; in the assay with SF-539 CNS, 27.3 µM. Besides, the figures for the TGI with SK-MEL-5 melanoma, in the assay with SK-OV-3 ovarian and with SNB-75 CNS were 25.3 µM, 42.5 µM and 29.6 µM, respectively.
In the case of `C#Cc1c(C)c(/C=C/C(C)=C/C(=O)OC)n(C)c1C`, the TGI is above 100 µM in the assay on COLO 205 colon; 79.4 µM in the assay on HL-60(TB) leukemia; above 100 µM with LOX IMVI melanoma; above 100 µM in the assay on NCI-H226 lung; above 100 µM in the assay on OVCAR-8 ovarian; above 100 µM in the assay with SF-539 CNS. In the assay on SK-OV-3 ovarian, this molecule returned a TGI above 100 µM.
Take `CN1CCc2c1nc(-c1ccc(Cl)cc1)c1c2N(C)CC1`: the TGI in the assay with COLO 205 colon was 21.1 µM; in the assay on HL-60(TB) leukemia it was 47.4 µM; in the assay with LOX IMVI melanoma, 22.5 µM; with OVCAR-8 ovarian, above 100 µM; in the assay with SF-539 CNS it was 32.9 µM; in the assay on SK-MEL-5 melanoma it was 26.6 µM. In addition, the results for the TGI with SK-OV-3 ovarian and in the assay with SNB-75 CNS were 59.8 µM and 67.7 µM, respectively.
